Experimental data: US20240384268A1, “Oligonucleotides” (Hudson Institute of Medical Research, priority 2021, published 2024)
In the oligonucleotide strings, read from the 5' end, every base follows the letter of its sugar. An asterisk marks phosphorothioate; unmarked linkages are phosphodiester. Other units and linkages are bracketed, terminal groups are in braces. A string of capitals states the bases alone. d = 2'-deoxy (DNA); m = 2'-O-methyl

Target: T1, human TLR7 (Homo sapiens, UniProt Q9NYK1)
T1 construct: HA; host or cells: 293XL-hTLR7-HA (HEK293)
T1 sequence (Q9NYK1 27-1049): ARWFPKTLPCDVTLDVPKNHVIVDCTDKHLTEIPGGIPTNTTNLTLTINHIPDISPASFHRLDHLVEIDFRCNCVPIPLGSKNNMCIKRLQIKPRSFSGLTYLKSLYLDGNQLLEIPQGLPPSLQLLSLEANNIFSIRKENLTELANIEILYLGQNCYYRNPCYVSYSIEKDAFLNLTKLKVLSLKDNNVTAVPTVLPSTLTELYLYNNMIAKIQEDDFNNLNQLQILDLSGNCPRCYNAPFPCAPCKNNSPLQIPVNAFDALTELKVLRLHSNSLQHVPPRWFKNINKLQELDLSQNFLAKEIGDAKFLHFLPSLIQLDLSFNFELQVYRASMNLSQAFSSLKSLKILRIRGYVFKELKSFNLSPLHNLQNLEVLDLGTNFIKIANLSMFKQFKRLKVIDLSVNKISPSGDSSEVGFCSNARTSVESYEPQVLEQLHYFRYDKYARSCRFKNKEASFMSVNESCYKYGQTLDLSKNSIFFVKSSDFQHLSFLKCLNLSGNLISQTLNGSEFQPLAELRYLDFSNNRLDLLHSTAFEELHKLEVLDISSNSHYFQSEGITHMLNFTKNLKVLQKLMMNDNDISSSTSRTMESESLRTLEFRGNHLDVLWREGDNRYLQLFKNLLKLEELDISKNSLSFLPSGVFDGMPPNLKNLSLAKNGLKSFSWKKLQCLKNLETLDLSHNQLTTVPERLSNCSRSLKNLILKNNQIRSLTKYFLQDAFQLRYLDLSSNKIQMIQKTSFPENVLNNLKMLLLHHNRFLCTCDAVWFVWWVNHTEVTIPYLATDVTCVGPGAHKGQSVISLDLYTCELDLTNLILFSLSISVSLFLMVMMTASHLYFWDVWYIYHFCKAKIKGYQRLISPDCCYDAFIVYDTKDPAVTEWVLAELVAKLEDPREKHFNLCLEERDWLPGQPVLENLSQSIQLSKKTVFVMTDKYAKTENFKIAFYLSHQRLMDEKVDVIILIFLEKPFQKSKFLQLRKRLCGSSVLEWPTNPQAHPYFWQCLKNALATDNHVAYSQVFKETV
Assay: HEK-TLR7 NF-κB-luciferase reporter, R848 stimulation
Assay type: cell-based
Conditions: for TLR7 100 nM: MOE-modified ASO at 100 nM; for TLR7 100 nM / TLR7 500 nM: averaged NF-κB-Luciferase relative to R848 condition; for TLR7 500 nM: MOE-modified ASO at 500 nM; for TLR7-100 nM: averaged NF-κB-Luciferase relative to R848: HEK-TLR7, 100 nM ASO, percentage of R848 without ASO (Alharbi et al., 2020)

| Substance | TLR7 100 nM | TLR7 500 nM | TLR7-100 nM: averaged NF-κB-Luciferase relative to R848 [%] |
| --- | --- | --- | --- |
| AGTCGTAGTTGCTTCCTAAC (antisense; 2'-MOE modified, pattern not given here) [MB21D1-1181 MOE] | 0.494 | 0.228 | – |
| ATGCCATCCACTTGATAGGC (antisense; 2'-MOE modified, pattern not given here) [EGFR-2874 MOE] | 0.668 | 0.390 | – |
| CGGAGGTCTTGGCTTCGTGG (antisense; 2'-MOE modified, pattern not given here) [MB21D1-525 MOE] | 0.505 | 0.138 | – |
| CGGCATCCACCACGTCGTCC (antisense; 2'-MOE modified, pattern not given here) [EGFR-3267 MOE] | 0.485 | 0.202 | – |
| GCCCATCCATGAGGTCCTGG (antisense; 2'-MOE modified, pattern not given here) [CTNN2B-2545 MOE] | 0.340 | 0.124 | – |
| GCTGACAAAGATTCACTGGT (antisense; 2'-MOE modified, pattern not given here) [HPRT-1353 MOE] | 0.375 | 0.190 | – |
| GGGTATCGAAAGAGTCTGGA (antisense; 2'-MOE modified, pattern not given here) [EGFR-3908 MOE] | 0.350 | 0.079 | – |
| GGTTTTGGCTGGGATCAAGT (antisense; 2'-MOE modified, pattern not given here) [CAMSAP1-4697 MOE] | 0.346 | 0.191 | – |
| GTCCAAGATCAGCAGTCTCA (antisense; 2'-MOE modified, pattern not given here) [CTNN2B-2341 MOE] | 0.298 | 0.120 | – |
| TCCGGCCTCGGAAGCTCTCT (antisense; 2'-MOE modified, pattern not given here) [MB21D1-168 MOE] | 0.440 | 0.166 | – |
| TGGCAGGCTCAGTGATGTCT (antisense; 2'-MOE modified, pattern not given here) [CTNN2B-1642 MOE] | 0.415 | 0.167 | – |
| TGGGCTGGAATCCGAGTTAT (antisense; 2'-MOE modified, pattern not given here) [EGFR-4705 MOE] | 0.270 | 0.095 | – |
| TGGGTTACGGCTCAGTATGG (antisense; 2'-MOE modified, pattern not given here) [CAMSAP1-4295 MOE] | 0.427 | 0.167 | – |
| TTTGCACACTTCGTACCCAA (antisense; 2'-MOE modified, pattern not given here) [CAMSAP1-4916 MOE] | 0.296 | 0.118 | – |
| mA*mA*mA*mA*mG*A*T*T*A*T*C*T*T*C*T*mU*mU*mU*mA*mA (AAAAGATTATCTTCTUUUAA; sugars from the 5' end m5 d10 m5, all phosphorothioate, methylation of C not given here) [[CDKN2B-AS1]2133] | – | – | 47.41 |
| mA*mA*mA*mA*mU*A*A*G*G*G*G*A*A*T*A*mG*mG*mG*mG*mA (mA*mA*mA*mA*mU*dA*dA*dG*dG*dG*dG*dA*dA*dT*dA*mG*mG*mG*mG*mA; antisense) [[CDKN2B-AS1]79] | – | – | 68.45 |
| mA*mA*mA*mG*mA*T*T*A*T*C*T*T*C*T*T*mU*mU*mA*mA*mU (mA*mA*mA*mG*mA*dT*dT*dA*dT*dC*dT*dT*dC*dT*dT*mU*mU*mA*mA*mU) [[CDKN2B-AS1]2132] | – | – | 49.28 |
| mA*mA*mA*mU*mG*T*C*C*T*G*G*C*C*C*T*mC*mA*mC*mU*mG (mA*mA*mA*mU*mG*dT*dC*dC*dT*dG*dG*dC*dC*dC*dT*mC*mA*mC*mU*mG) [[LINC-PINT]148.1] | – | – | 46.45 |
| mA*mA*mG*mA*mU*T*A*T*C*T*T*C*T*T*T*mU*mA*mA*mU*mU (mA*mA*mG*mA*mU*dT*dA*dT*dC*dT*dT*dC*dT*dT*dT*mU*mA*mA*mU*mU) [[CDKN2B-AS1]2131] | – | – | 42.09 |
